This passage reports Activity, MED and Ratio results from ChEMBL document CHEMBL1143987, “Structure and estrogenic activity of new lignans from Iryanthera lancifolia” (2008).

Activity calls are given as the source filed them. The rule behind the calls is not given here.

Common to all, as to format: functional
For assay [1], the system named is MCF7. The assay is described as follows: Proliferative effect in human MCF7 BUS cells assessed as increase in cell number relative to 17-beta estradiol. The arrangement: concentration or dose not given beside the values.
Assay [2] has as its system MCF7. In words: Proliferative effect in human MCF7 BUS cells assessed as ratio of increase in cell number in drug treated to control.
Assay [3] has as its system MCF7. In words: Proliferative potency in human MCF7 BUS cells assessed as induction of maximal cell proliferation relative to 17-beta estradiol.
The test system of assay [4] is MCF7. In words: Estrogenic potency in human MCF7 BUS cells assessed as drug level inducing maximal cell proliferation.

With `COc1cc(C[C@H](C)[C@H](C)Cc2ccc3c(c2)OCO3)ccc1O` [AUSTROBAILIGNAN 6], the Activity in assay [1] and in assay [3] was 0% in each case. Besides, in assay [2], the result was inactive.

For the molecule `C[C@H](Cc1ccc2c(c1)OCO2)[C@@H](C)Cc1ccc2c(c1)OCO2` [MACHILIN A], the MED in assay [4] came to 10 µM. Besides, the Activity in assay [1] stood at 13.5%; in assay [3], 0.01%. The Ratio in assay [2] was found to be 1.9.

As for `C[C@]12CC[C@@H]3c4ccc(O)cc4CC[C@H]3[C@@H]1CC[C@@H]2O` [ESTRADIOL], in assay [4], the MED amounted to 0.001 µM. Further, in assay [2], the Ratio amounted to 8.

On to `COc1ccc(CCC(=O)c2c(O)cc(O)cc2OC)cc1`, for which the MED in assay [4] came out at 10 µM. Besides, the Activity in assay [1] came to 80.7%; in assay [3], 0.01%. Besides, the Ratio in assay [2] came to 6.6.

As for `C/C(=C/c1ccc(O)cc1)C(C)Cc1ccc(O)cc1` (stereo unspecified), in assay [4], the MED was 10 µM. Further, the values for the Activity in assay [1] and in assay [3] were 73.7% and 0.01%, respectively. In assay [2], the Ratio is on record as 6.2.

`CCO[C@@H](c1ccc2c(c1)OCO2)[C@@H](C)[C@H](C)Cc1ccc2c(c1)OCO2`: the MED in assay [4] was found to be 10 µM. The Activity in assay [1] was determined as 84%; in assay [3], 0.01%. In assay [2], the Ratio is listed as 6.9.

Regarding `C[C@@H]1[C@@H](c2ccc3c(c2)OCO3)c2cc3c(cc2C[C@H]1C)OCO3` [CAGAYANINE], the MED in assay [4] was determined as 10 µM. For the same molecule, the Activity in assay [1] worked out at 17.9%; in assay [3] it was 0.01%. Also, the Ratio in assay [2] amounted to 2.2.

For the molecule `COc1cc(O)cc(O)c1C(=O)CCc1ccc2c(c1)OCO2`, the MED in assay [4] came to 10 µM. In addition, the Activity was determined as 22.1% in assay [1] and 0.01% in assay [3]. Also, the Ratio in assay [2] is given as 2.5.

Turning to `C[C@@H]1[C@@H](c2ccc(O)cc2)c2cc(O)ccc2C[C@H]1C`, in assay [4], the MED stood at 10 µM. The Activity in assay [1] came to 77.8%; in assay [3], 0.01%. Moreover, the Ratio in assay [2] turned out to be 6.4.

As to `C[C@H](Cc1ccc2c(c1)OCO2)[C@H](C)C(=O)c1ccc(O)cc1`, the MED in assay [4] is 10 µM. In addition, the Activity is on record as 50.1% in assay [1] and 0.01% in assay [3]. Also, the Ratio in assay [2] worked out at 4.51.

In the case of `C/C=C/c1cc(OC)c2c(c1)[C@@H](C)[C@H](c1ccc3c(c1)OCO3)O2` [LICARINE B], the Activity in assay [1] and in assay [3] was 0% each time. In assay [2], the result was inactive.

`COc1cc(C(=O)[C@@H](C)[C@H](C)Cc2ccc3c(c2)OCO3)ccc1O` [OLEIFERIN D]: the MED in assay [4] was 10 µM. The Activity in assay [1] worked out at 42.8%; in assay [3] it was 0.01%. In addition, the Ratio in assay [2] turned out to be 4.

With `COc1ccc([C@H]2Oc3c(OC)cc(C=O)cc3[C@@H]2C)cc1O` [PERSEAL F], the Activity in assay [1] and in assay [3] was 0% in each case. Moreover, the result in assay [2] was inactive.

Consider `C[C@@H]([C@H](C)Cc1ccc2c(c1)OCO2)[C@H](O)c1ccc2c(c1)OCO2`, for which the Activity in assay [1] and in assay [3] was 0% each time. In addition, in assay [2], the outcome was inactive.

On to `C[C@@H]([C@H](C)Cc1ccc2c(c1)OCO2)[C@@H](O)c1ccc2c(c1)OCO2` [OLEIFERIN C], for which the MED in assay [4] stood at 10 µM. For the same molecule, the results for the Activity in assay [1] and in assay [3] were 47.8% and 0.01%, respectively. The Ratio in assay [2] is 4.4.

On to `C/C=C/c1cc(OC)c2c(c1)[C@@H](C)[C@H](c1ccc(O)c(OC)c1)O2` [LICARINE A], for which, in assay [4], the MED was 10 µM. In addition, the Activity in assay [1] is reported as 26.4%; in assay [3], 0.01%. Further, the Ratio in assay [2] worked out at 2.8.

Turning to `Oc1ccc2c(c1)O[C@H](c1ccc3c(c1)OCO3)CC2`, in assay [4], the MED is 10 µM. The figures for the Activity in assay [1] and in assay [3] were 67.1% and 0.01%, respectively. Moreover, in assay [2], the Ratio came to 5.7.

As to `C[C@H](Cc1ccc(O)cc1)[C@H](C)Cc1ccc2c(c1)OCO2`, the MED in assay [4] amounted to 10 µM. Besides, the Activity in assay [1] came to 68.7%; in assay [3], 0.01%. In assay [2], the Ratio stood at 5.8.
